Experimental data reported in patent publication US12605451B2, “Targeted plasma protein degradation” (Novartis AG, priority 2020, dated 2026).

Assays:
human ASGPR1 = target: T1, human ASGPR1 (Homo sapiens, UniProt P07306); experiment: ASGPR1 SPR direct binding (Biacore, SA chip); settings: Bifunctional Compound (FHR3 series), Table 7, read-out: ASGRR KD
T1 construct: Recombinant extracellular domain of human ASGPR1 with N-terminal biotinylated Avitag
T1 sequence (P07306 62-291 limits assumed): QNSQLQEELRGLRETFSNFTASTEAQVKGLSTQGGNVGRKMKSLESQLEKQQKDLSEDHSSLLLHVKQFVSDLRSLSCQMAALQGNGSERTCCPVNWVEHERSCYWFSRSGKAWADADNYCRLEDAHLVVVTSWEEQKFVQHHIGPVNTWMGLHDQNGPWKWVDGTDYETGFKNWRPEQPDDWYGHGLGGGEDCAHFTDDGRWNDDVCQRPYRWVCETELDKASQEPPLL
Description: SPR was used to obtain the binding data for ASGP receptor ligand compound (int-CC2), either alone or as part of the bifunctional compounds (BFC-13), (BFC-15) and (BFC16).
(§1) ASGPR1 SPR experiments were performed on either Biacore T200 or Biacore 8K. The assay was optimized for Biacore (Streptavidin) SA chip in running buffer consisting of 20 mM HEPES, 300 mM NaCl, 2 mM CaCl2, 0.01% tween-20, 2% DMSO, pH 7.4. Recombinant extracellular domain of human ASGPR1 with N-terminal biotinylated Avitag was diluted to 20 μg/mL in running buffer, and immobilized onto SA chip after it was preconditioned with at least four 60-second injections at 30 uL/min of 1 M NaCl/40 mM NaOH solution. Protein immobilization level varied from 500 RU to 3500 RU dependent on analytes' molecular weight, for targeted Rmax of 30 RUs. Direct binding of analytes to ASGPR1 was observed when a dose response titration of analytes in 2% DMSO was flown over the immobilized protein. Data analysis was done on either Biacore T200 Evaluation Software or Biacore Insight Evaluation Software.
SPR was used to obtain the binding data for ASGP receptor ligand compounds (int-CC2), either alone or as part of the bifunctional compounds (BFC1).
as §1, with “Biacore” for “Biacore (Streptavidin)”

FHR3 = target: T2, FHR3 (Homo sapiens, UniProt Q02985); experiment: SPR binding to biotinylated FHR3 (Proteon XPR36); settings: Bifunctional Compound
T2 construct: Purified FHR3 with C-terminal biotinylated Avitag was used for the assay
T2 sequence (Q02985 19-330): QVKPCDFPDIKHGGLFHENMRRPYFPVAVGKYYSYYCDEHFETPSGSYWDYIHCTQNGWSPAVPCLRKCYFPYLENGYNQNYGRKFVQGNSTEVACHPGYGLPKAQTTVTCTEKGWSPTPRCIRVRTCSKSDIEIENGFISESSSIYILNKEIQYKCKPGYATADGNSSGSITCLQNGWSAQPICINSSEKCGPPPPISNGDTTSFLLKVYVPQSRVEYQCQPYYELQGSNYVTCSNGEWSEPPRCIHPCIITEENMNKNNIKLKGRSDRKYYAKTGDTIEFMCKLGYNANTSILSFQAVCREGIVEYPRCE
Description: SPR was used to obtain the binding data for FHR3 receptor ligands compounds (C12), (C13), (C14), (C15) and (C16), either alone or as part of the bifunctional compounds (BFC13), (BFC14), (BFC15), (BFC16) and (BFC17), respectively.
SPR Binding experiments were performed on a Proteon XPR36 instrument (Bio-Rad Laboratories). Purified FHR3 with C-terminal biotinylated Avitag was used for the assay. Biotinylated FHR3 was incubated with fivefold molar excess of bifunctional compounds (BFC13), (BFC14), (BFC15), (BFC16) or (BFC17), or compounds (C12), (C13), (C14), (C15) or (C16), and immobilized onto a Neutravidin coated sensor chip. (NLC chip, Bio-Rad Laboratories, Inc). […]
To perform sandwich SPR binding assays, His-ASGPR1 (62-291) protein stocks were diluted with running buffer to a desired concentration. […] Sensorgrams were recorded for association and dissociation phases. All sensorgrams were processed by subtracting the binding response recorded from a blank control surfaces (or interspot surfaces), followed by subtracting buffer blank injections from the reaction surface. […]

Row | Structure (SMILES) | Kd (human ASGPR1) [nM] | Kd (FHR3) [nM]
1 | CC(=O)N[C@H]1[C@H](OCCCCC(=O)NCCCNC(=O)CCOCC(COCCC(=O)NCCCNC(=O)CCCCO[C@@H]2O[C@H](CO)[C@H](O)[C@H](O)[C@H]2NC(C)=O)(COCCC(=O)NCCCNC(=O)CCCCO[C@@H]2O[C@H](CO)[C@H](O)[C@H](O)[C@H]2NC(C)=O)NC(=O)CCOCCOCCOCCOCCOCCOCCOCCOCCOCCC(=O)NCCCC[C@@H]2NC(=O)[C@H](CCCNC(=N)N)NC(=O)[C@H](C)N(C)C(=O)[C@H](Cc3c[nH]c4ccccc34)NC(=O)[C@H](Cc3c[nH]cn3)NC(=O)[C@H](CC(C)C)NC(=O)[C@H](CO)NC(=O)[C@H](C)N(C)C(=O)[C@H](Cc3ccccc3)N(C)C(=O)[C@H](Cc3ccccc3)NC(=O)CSC[C@@H](C(=O)NCC(N)=O)NC(=O)[C@H](CCCNC(=N)N)NC(=O)[C@H](CC(=O)O)NC2=O)O[C@H](CO)[C@H](O)[C@@H]1O [BFC-16] | 0.32 | 26
2 | CC(=O)N[C@H]1[C@H](OCCCCC(=O)NCCCNC(=O)CCOCC(COCCC(=O)NCCCNC(=O)CCCCO[C@@H]2O[C@H](CO)[C@H](O)[C@H](O)[C@H]2NC(C)=O)(COCCC(=O)NCCCNC(=O)CCCCO[C@@H]2O[C@H](CO)[C@H](O)[C@H](O)[C@H]2NC(C)=O)NC(=O)CCOCCOCCOCCOCCOCCOCCOCCOCCOCCC(=O)NCCCC[C@@H]2NC(=O)[C@H](Cc3ccc(O)cc3)NC(=O)[C@H](CC(N)=O)NC(=O)[C@H](C(C)C)NC(=O)[C@H](CO)NC(=O)[C@H](Cc3ccccc3)N(C)C(=O)[C@H](CCCNC(=N)N)NC(=O)[C@H](Cc3ccccc3)NC(=O)CSC[C@@H](C(=O)NCC(N)=O)NC(=O)[C@H](Cc3ccccc3)N(C)C(=O)[C@H](CC(N)=O)NC(=O)[C@@H]3Cc4ccccc4CN3C(=O)[C@H](CC(=O)O)NC(=O)[C@H](CCCNC(=N)N)NC2=O)O[C@H](CO)[C@H](O)[C@@H]1O [BFC-15] | 0.45 | 301
